Experimental data: PMC9503767, “Site-Differentiated Iron–Sulfur Cluster Ligation Affects Flavin-Based Electron Bifurcation Activity” (Metabolites, 2022)

Molecular target: T1, NfnL (large subunit of NADH-dependent reduced-ferredoxin: NADP+ oxidoreductase NfnSL) (Pyrococcus furiosus, UniProt Q8U195, E126C)
T1 construct: gene sudA; isolated NfnL subunit
Test: intrinsic protein fluorescence quenching titration (ex […] nm, em […] nm), quadratic tight-binding fit

T1 sequence (Q8U195 whole entry E126C): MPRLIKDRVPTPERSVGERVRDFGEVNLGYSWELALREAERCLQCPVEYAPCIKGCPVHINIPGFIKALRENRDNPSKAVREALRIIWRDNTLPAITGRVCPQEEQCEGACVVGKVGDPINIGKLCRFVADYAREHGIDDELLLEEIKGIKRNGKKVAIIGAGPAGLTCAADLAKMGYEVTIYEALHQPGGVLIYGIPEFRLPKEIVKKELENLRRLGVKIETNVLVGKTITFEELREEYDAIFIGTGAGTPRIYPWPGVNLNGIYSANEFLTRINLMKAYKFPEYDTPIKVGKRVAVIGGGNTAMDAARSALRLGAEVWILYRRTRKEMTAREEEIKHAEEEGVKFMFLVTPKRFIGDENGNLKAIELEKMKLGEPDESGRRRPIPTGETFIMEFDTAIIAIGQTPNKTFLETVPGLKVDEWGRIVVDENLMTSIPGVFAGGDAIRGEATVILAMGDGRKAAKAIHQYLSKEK

SMILES	Kd [nM]
NC(=O)C1=CN([C@@H]2O[C@H](COP(=O)(O)OP(=O)(O)OC[C@H]3O[C@@H](n4cnc5c(N)ncnc54)[C@H](OP(=O)(O)O)[C@@H]3O)[C@@H](O)[C@H]2O)C=CC1 [NADPH]	2600 ± 600
NC(=O)c1ccc[n+]([C@@H]2O[C@H](COP(=O)([O-])OP(=O)(O)OC[C@H]3O[C@@H](n4cnc5c(N)ncnc54)[C@H](OP(=O)(O)O)[C@@H]3O)[C@@H](O)[C@H]2O)c1 [NADP+]	2600 ± 600
